The results in this text go back to PMC6792352, “Limited Chemical Structural Diversity Found to Modulate Thyroid Hormone Receptor in the Tox21 Chemical Library” (Environmental Health Perspectives, 2019).

The term CC50 denotes the concentration that lowers cell viability or growth by half. Low readings indicate greater toxicity to the cells, high ones lower toxicity to the cells.

A short description of this data set: in vitro. The following applies: rat, gh3-tre-luc cells.

Structures can show the parent of a compound that is named as a salt. Starred links: 1 amine or outer side, 2 acyl side, 3 side chain; linkers in the order of their positions; H or OH if unused. Positions of bridges follow the written chain, without caps; N, C: chain ends. Non-standard residues stand in square brackets, D forms with d. Residues, ends and D or L forms follow the SMILES beside them. *: point of attachment. X1 = NC1=N[C@@H]([C@H](N[*:1])C(=O)[*:2])C[C@H](O)N1; ΔAla(Z-3-ureido) = NC(=O)N/C=C(\N)C(=O)O; β3hOrn = NCCC[C@H](N)CC(=O)*; Dap = NC[C@H](N)C(=O)O

As to `ClC(Cl)(Cl)c1ccccc1` [Benzotrichloride], the CC50 at 24 h (AC50 (uM) modified / 1000) was above 90 µM.
Same read-out and setting: the figure for `FC(F)(F)C(Cl)Br` (stereo not drawn) [Halothane] is above 90 µM; for `C=CCOC(=O)C(C)(C)OC(=O)c1cc(-n2c(=O)cc(C(F)(F)F)n(C)c2=O)ccc1Cl` [Butafenacil] it is above 90 µM.
Still for that read-out and setting: the figure for `O=C1C(O)=C(O)C(=O)C(O)=C1O` [Tetroquinone] is above 50 µM; for `CC1(C)[C@H](/C=C(\Cl)C(F)(F)F)[C@@H]1C(=O)O[C@@H](C#N)c1cccc(Oc2ccccc2)c1` [?-Cyhalothrin] it is above 80 µM; for `Cc1cccc(N)c1N` [2,3-Diaminotoluene] it is above 90 µM.
On to `NCCC[C@H](N)CC(=O)N[C@H]1CNC(=O)[C@H]([C@H]2C[C@H](O)NC(N)=N2)NC(=O)/C(=C/NC(N)=O)NC(=O)[C@H](CO)NC(=O)[C@H](CO)NC1=O` [Viomycin sulfate] (β3hOrn-[Dap]SS[ΔAla(Z-3-ureido)][X1]; lactam 1-C), for which the CC50 at 24 h (AC50 (uM) modified / 1000) was above 50 µM.
Still for that read-out and setting: the result for `O=Cc1ccccc1` [Benzaldehyde] reads above 90 µM; that for `CN1CCN(C2=Nc3ccccc3Sc3ccc(Cl)cc32)CC1` [Clothiapine], 15.2 µM; that for `COc1ccc2c(c1)N(C[C@H](C)CN(C)C)c1ccccc1S2` [Methotrimeprazine maleate], 6.79 µM.
Same read-out and setting: the result for `O=c1cc[nH]c(=O)[nH]1` [Uracil] reads above 90 µM; that for `O=c1[nH]c(=O)n([C@H]2C[C@H](O)[C@@H](CO)O2)cc1/C=C/Br` [Brivudine], above 50 µM; that for `COC(C)OC` [1,1-Dimethoxyethane], above 90 µM.
With `CCN1CCCC(OC(=O)C(c2ccccc2)c2ccccc2)C1` (stereo not drawn) [Piperidolate hydrochloride], under “AC50 (uM) modified / 1000”, the CC50 at 24 h was found to be 11.6 µM.
On to `N[C@@H](C=O)[C@@H](O)[C@@H](O)[C@H](O)CO` [Galactosamine hydrochloride], for which the CC50 at 24 h (AC50 (uM) modified / 1000) was above 90 µM.
The compound `CCC[N+](=O)[O-]` [1-Nitropropane] showed a CC50 at 24 h (AC50 (uM) modified / 1000, Tox21_110001=Tox21_202289, viability, 1 nM T3 present, 24 h) above 90 µM.
Where the note is “AC50 (uM) modified / 1000”, `COc1ccc(OC)c(CC(C)N)c1` (stereo not drawn) [2,5-Dimethoxyamphetamine hydrochloride] yielded a cytotoxic concentration (CC50) at 24 h above 100 µM.
Still for that read-out and setting: the result for `COc1ccc2cc(CCC(C)=O)ccc2c1` [Nabumetone] reads above 20 µM; that for `CC(=O)Nc1ccc(C)c(Cl)c1` [N-(3-Chloro-4-methylphenyl)acetamide], above 90 µM.
Same read-out and setting: the result for `C#Cc1cccc(Nc2ncnc3cc(OCCOC)c(OCCOC)cc23)c1` [Erlotinib] reads above 50 µM; that for `CCCCc1ncc(/C=C(\Cc2cccs2)C(=O)O)n1Cc1ccc(C(=O)O)cc1` [Eprosartan mesylate], above 50 µM; that for `OCCc1ccccc1` [2-Phenylethanol], above 50 µM.
`CC(C)[N+](=O)[O-]` [2-Nitropropane] registered a CC50 at 24 h (AC50 (uM) modified / 1000, Tox21_110001=Tox21_200365, viability, 1 nM T3 present, 24 h) above 90 µM.
Consider `NNc1nc(-c2ccc([N+](=O)[O-])cc2)cs1` [2-Hydrazino-4-(4-nitrophenyl)thiazole], for which, under “AC50 (uM) modified / 1000”, the CC50 at 24 h came to 58.8 µM.
On the same count and under the same terms, the result for `CC/C=C\CCOC(=O)c1ccccc1` [(3Z)-Hex-3-en-1-yl benzoate] reads above 90 µM; that for `CCCC1C(CC)=CC(CC)=CN1c1ccccc1` (stereo not drawn) [3,5-Diethyl-1-phenyl-2-propyl-1,2-dihydropyridine], above 90 µM.
Same read-out and setting: the result for `CCCCCCCCCCCCCCCC(=O)O[C@@H]1CC(C)=C(/C=C/C(C)=C/C=C/C(C)=C/C=C/C=C(C)/C=C/C=C(C)/C=C/C2=C(C)C[C@@H](OC(=O)CCCCCCCCCCCCCCC)CC2(C)C)C(C)(C)C1` [Physalien] reads above 50 µM; that for `Brc1c2ccccc2cc2ccccc12` [9-Bromoanthracene], above 90 µM; that for `SCCc1cnccn1` [Pyrazineethanethiol], above 90 µM.
In the case of `COc1cccc(C(=O)NN(C(=O)c2cc(C)cc(C)c2)C(C)(C)C)c1C` [Methoxyfenozide], where the note is “AC50 (uM) modified / 1000”, the CC50 at 24 h was above 90 µM.
The same measure, in the same setting: the figure for `O=C(O)[C@@H](S)[C@H](S)C(=O)O` [(2R,3R)-2,3-Dimercaptosuccinic acid] is 22.8 µM.
Same read-out and setting: the figure for `O=C1CCC(=O)N1CO` [N-Hydroxymethylsuccinimide] is above 50 µM; for `O=C(NCC1CCCCN1)c1cc(OCC(F)(F)F)ccc1OCC(F)(F)F` (stereo not drawn) [Flecainide acetate] it is 42.2 µM.
Still for that read-out and setting: the figure for `CC(C)(O)CCC(C)(C)O` [2,5-Dimethylhexane-2,5-diol] is above 90 µM; for `CCCCCCCCCCCCCCCCCCOCC(O)CO` (stereo not drawn) [3-(Octadecyloxy)-1,2-propanediol] it is above 50 µM.
In turn, `O=C(O)C(=O)Nc1cccc(-c2nnn[nH]2)c1` [Acitazanolast] registered a CC50 at 24 h (AC50 (uM) modified / 1000) above 50 µM.
Still for that read-out and setting: the figure for `CCCCCCCCO` [1-Octanol] is above 90 µM; for `O=C(OC(=O)c1ccccc1)c1ccccc1` [Benzoic anhydride] it is above 90 µM; for `CN1CCC(Nc2ncc3ncnc(Nc4ccc(F)c(Cl)c4)c3n2)CC1` [Falnidamol dihydrochloride] it is 11.7 µM.
For `C[C@]12CC[C@H](OS(=O)(=O)O)CC1=CC[C@@H]1[C@@H]2CC[C@]2(C)C(=O)CC[C@@H]12` [Sodium prasterone sulfate dihydrate], the CC50 at 24 h (AC50 (uM) modified / 1000, Tox21_110001=Tox21_111223, viability, 1 nM T3 present, 24 h) is above 50 µM.
Take `COc1cc(NC(C)CCCN)c2ncccc2c1` (stereo not drawn) [Primaquine diphosphate]: the CC50 at 24 h (AC50 (uM) modified / 1000) is 15 µM.
Same read-out and setting: the result for `CCC(C)(C)C(=O)OC1=C(c2ccc(Cl)cc2Cl)C(=O)OC12CCCCC2` [Spirodiclofen] reads above 90 µM.
The compound `CCOC(=O)COc1ccc2c(=O)cc(-c3ccccc3)oc2c1` [Efloxate] returned a CC50 at 24 h (AC50 (uM) modified / 1000) above 50 µM.
Still for that read-out and setting: the result for `C=CCOC(=O)c1ccc(C(=O)OCC=C)c(C(=O)OCC=C)c1` [Triallyl trimellitate] reads above 90 µM; that for `COc1cccc(OC)c1` [1,3-Dimethoxybenzene], above 90 µM; that for `CCCN[C@H]1CCc2nc(N)sc2C1` [Pramipexole dihydrochloride monohydrate], above 100 µM.
On the same count and under the same terms, the figure for `Cc1cc(Nc2ccc(O)cc2)ccc1N` [4-Amino-4'-hydroxy-3-methyldiphenylamine] is 11.4 µM; for `CCOc1cc(OCC)c(C(C)=O)cc1OCC` [2,4,5-Triethoxyacetophenone] it is 35.3 µM.
Same read-out and setting: the result for `COC(=O)CC(C(C)=O)C(=O)OC` (stereo not drawn) [Dimethyl acetylsuccinate] reads above 90 µM; that for `CC(=O)N[C@@H]1[C@@H](O)[C@H](O)[C@@H](CO)O[C@H]1O` [N-Acetylglucosamine], above 50 µM; that for `CCN(CC)CCO` [N,N-Diethylethanolamine], above 100 µM.
Compound `C=CCN1C[C@H](C)N([C@H](c2ccc(C(=O)N(CC)CC)cc2)c2cccc(OC)c2)C[C@H]1C` [SNC 80] showed a half-maximal cytotoxic concentration (CC50) at 24 h (AC50 (uM) modified / 1000) of 28.8 µM.
The same measure, in the same setting: the result for `CC1=NN(c2ccc(S(=O)(=O)O)cc2)C(=O)C1` [4-(3-Methyl-5-oxo-4,5-dihydro-1H-pyrazol-1-yl)benzenesulfonic acid] reads above 90 µM; that for `CC(C)(C)NCC(O)COc1ccc(NC(=O)NC2CCCCC2)cc1` (stereo not drawn) [Talinolol], above 50 µM.
Still for that read-out and setting: the result for `CCCCNC(N)=O` [N-Butylurea] reads above 90 µM; that for `C#C[C@]1(O)CC[C@H]2[C@@H]3CCC4=CC(=O)CC[C@@H]4[C@H]3C(=C)C[C@@]21CC` [Etonogestrel], above 50 µM; that for `NC(=O)c1ccncc1` [Isonicotinamide], above 100 µM.
